We go through 32 compounds from patent US10865191B2, “Heterocyclic compounds useful as modulators of TNF alpha” (BRISTOL-MYERS SQUIBB COMPANY, priority 2015, dated 2020).

This test concerns the target TNFα (Homo sapiens, UniProt P01375). Put plainly: TNF induced HEK-Blue assay (NF-kB-driven secreted alkaline phosphatase reporter). It counts as cell-based. As to conditions: TNFα 0.5 ng/mL, HEK-Blue-CD40L cells, 18 h; read-out: TNF induced HEK-Blue assay IC50 value. The essentials: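 HEK-Blue-CD40L cells (NF-kB-driven SEAP reporter), 20,000/well, added after 30 min pre-incubation of compound (0.004–25 μM final) with TNFα 0.5 ng/mL final at 37 °C; 18 h incubation. SEAP read with QUANTI-Blue at 620 nm; IC50 from 4-parameter logistic fit, normalized to unstimulated and stimulated DMSO controls.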

Chain of TNFα (P01375 77-233 limits assumed): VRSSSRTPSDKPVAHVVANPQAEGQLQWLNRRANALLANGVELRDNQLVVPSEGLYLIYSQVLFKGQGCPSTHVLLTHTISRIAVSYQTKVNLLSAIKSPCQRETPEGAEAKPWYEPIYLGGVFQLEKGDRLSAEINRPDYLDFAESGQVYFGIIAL

Turning to `C[C@@H](Nc1c(Cl)cnc2ccccc12)c1cc(-c2cncc(C(=O)N3CCOCC3)c2)ccc1F` [Example 551, (R)-(5-(3-(1-((3-chloroquinolin-4-yl)amino)ethyl)-4-fluorophenyl)pyridin-3-yl)(morpholino)methanone], the IC50 is 1000 to 10000 nM. Consider `Cc1nc2c(F)cc(-c3cnc(C(C)(C)O)nc3)cc2c(NC(C)c2ccccc2)c1Cl` (centres unmarked) [Example 306, 2-(5-(3-chloro-8-fluoro-2-methyl-4-((1-phenylethyl)amino)quinolin-6-yl)pyrimidin-2-yl)propan-2-ol], for which the half-inhibitory concentration (IC50) was less than 1000 nM. `C[C@@H](Nc1c(Cl)cnc2ccccc12)c1cc(-c2ccnnc2)ccc1F` [Example 515, (R)-3-chloro-N-(1-(2-fluoro-5-(pyridazin-4-yl)phenyl)ethyl)quinolin-4-amine]: the concentration for half-maximal inhibition (IC50) fell in the range of 1000 to 10000 nM.

For `C[C@@H](Nc1c(Cl)cnc2ccc(-c3cnc(C(C)(C)O)nc3)cc12)c1cc(N2CCOCC2=O)ccc1F` [Example 369, (R)-4-(3-(1-((3-chloro-6-(2-(2-hydroxypropan-2-yl)pyrimidin-5-yl)quinolin-4-yl)amino)ethyl)-4-fluorophenyl) morpholin-3-one], the IC50 was less than 1000 nM. As for `C[C@@H](Nc1c(Cl)cnc2ccc(-c3ccc(C4(N)CC(O)C4)cc3)cc12)c1ccccc1F` (mixture of isomers) [Example 119, (R)-3-amino-3-(4-(3-chloro-4-((1-(2-fluorophenyl)ethyl)amino)quinolin-6-yl)phenyl)cyclobutan-1-ol], the half-inhibitory concentration (IC50) was less than 1000 nM. In the case of `COC(=O)C1CCN(c2ncc(-c3cc4c(N[C@H](C)c5ccccc5F)c(Cl)cnc4cc3F)cn2)C1` (mixture of isomers) [Example 281, methyl 1-(5-(3-chloro-7-fluoro-4-(((R)-1-(2-fluorophenyl)ethyl)amino)quinolin-6-yl)pyrimidin-2-yl)pyrrolidine-3-carboxylate] it was less than 1000 nM. In the case of `CC(Nc1c(Cl)cnc2ccc(-c3ccc(C(C)(C)O)cc3)cc12)c1ccn(C)n1` (racemic) [Example 200, 2-(4-(3-chloro-4-((1-(1-methyl-1H-pyrazol-3-yl)ethyl)amino)quinolin-6-yl)phenyl)propan-2-ol] it was 1000 to 10000 nM; in that of `C=CCc1ccc(F)c([C@@H](C)Nc2c(Cl)cnc3ccccc23)c1` [Example 452, (R)—N-(1-(5-allyl-2-fluorophenyl)ethyl)-3-chloroquinolin-4-amine], 1000 to 10000 nM; in that of `CC(Nc1c(Cl)cnc2ccc(-c3ccc(C(C)(C)O)cc3)cc12)c1cn(C)cn1` (racemic) [Example 205, 2-(4-(3-chloro-4-((1-(1-methyl-1H-imidazol-4-yl)ethyl)amino)quinolin-6-yl)phenyl)propan-2-ol], less than 1000 nM. In the case of `Cc1nc2ccccc2c(N[C@H](C)c2cc(-c3cn[nH]c3)ccc2F)c1Cl` [Example 533, (R)-3-chloro-N-(1-(2-fluoro-5-(1H-pyrazol-4-yl)phenyl)ethyl)-2-methylquinolin-4-amine] it was less than 1000 nM. In the case of `CC(C)(O)c1ncc(-c2cc3c(NC4(c5ccccc5F)CCC4)c(Cl)cnc3cc2F)cn1` [Example 609, 2-(5-(3-chloro-7-fluoro-4-((1-(2-fluorophenyl)cyclobutyl)amino)quinolin-6-yl)pyrimidin-2-yl)propan-2-ol], the IC50 was 1000 to 10000 nM. In the case of `C[C@@H](Nc1c(Cl)cnc2ccc(-c3cnc(C(C)(C)O)nc3)cc12)c1cc(N2CCOC2=O)ccc1F` [Example 367, (R)-3-(3-(1-((3-chloro-6-(2-(2-hydroxypropan-2-yl)pyrimidin-5-yl)quinolin-4-yl)amino)ethyl)-4-fluorophenyl) oxazolidin-2-one] it was less than 1000 nM. In the case of `C=Cc1ccc(F)c([C@@H](C)Nc2c(Cl)cnc3cc(F)c(-c4cnc(C(C)(C)O)nc4)nc23)c1` [Example 188, (R)-2-(5-(7-chloro-3-fluoro-8-((1-(2-fluoro-5-vinylphenyl)ethyl)amino)-1,5-naphthyridin-2-yl)pyrimidin-2-yl)propan-2-ol] it was less than 1000 nM; in that of `Cc1ccc(C)c(Nc2c(Cl)c(N)nc3ccc(-c4cnc(NCC(C)(C)O)nc4)cc23)c1` [Example 69, 1-((5-(2-amino-3-chloro-4-((2,5-dimethylphenyl)amino)quinolin-6-yl)pyrimidin-2-yl)amino)-2-methylpropan-2-ol], less than 1000 nM; in that of `CC(Nc1c(Cl)cnc2cc(F)c(-c3cnc(C(C)(O)CO)nc3)cc12)c1ccccc1F` (centres unmarked) [Example 259, 2-(5-(3-chloro-7-fluoro-4-((1-(2-fluorophenyl)ethyl)amino)quinolin-6-yl)pyrimidin-2-yl)propane-1,2-diol], 10000 to 25000 nM. `Cc1nc2ccc(C3C=NC(C(C)(C)O)=NC3)cc2c(N[C@H](C)c2cc(CO)ccc2F)c1Cl` (stereo partly drawn) [Example 432, (R)-2-(5-(3-chloro-4-((1-(2-fluoro-5-(hydroxymethyl)phenyl)ethyl)amino)-2-methylquinolin-6-yl)-4,5-dihydropyrimidin-2-yl)propan-2-ol]: the IC50 is less than 1000 nM.

With `Cc1ccc(C)c(C(C)Nc2c(Cl)cnc3ccc(-c4cnc(C(C)(C)O)nc4)cc23)c1` (racemic) [Example 149, 2-(5-(3-chloro-4-((1-(2,5-dimethylphenyl)ethyl)amino)quinolin-6-yl)pyrimidin-2-yl)propan-2-ol], the IC50 is 1000 to 10000 nM.

As to `C[C@@H](Nc1c(Cl)cnc2ccc(-c3cnc(C(C)(C)O)nc3)cc12)c1cccc(Br)c1` [Example 319, (R)-2-(5-(4-((1-(3-bromophenyl)ethyl)amino)-3-chloroquinolin-6-yl)pyrimidin-2-yl)propan-2-ol], the IC50 is less than 1000 nM. In the case of `CC(C)(O)c1ncc(-c2nc3c(N[C@@H](c4cc(CO)ccc4F)C(F)F)c(Cl)cnc3cc2F)cn1` [Example 501, (S)-2-(5-(7-chloro-8-((2,2-difluoro-1-(2-fluoro-5-(hydroxymethyl)phenyl)ethyl)amino)-3-fluoro-1,5-naphthyridin-2-yl)pyrimidin-2-yl)propan-2-ol] it was less than 1000 nM; in that of `Cc1nc2ccc(-c3cnc(C(C)(C)O)nc3)cc2c(N[C@@H](c2cc(N3CCNC3=O)ccc2F)C(F)F)c1Cl` [Example 372, (S)-1-(3-(1-((3-chloro-6-(2-(2-hydroxypropan-2-yl)pyrimidin-5-yl)-2-methylquinolin-4-yl)amino)-2,2-difluoroethyl)-4-fluorophenyl) imidazolidin-2-one], less than 1000 nM. In the case of `CC(Nc1c(Cl)cnc2ccc(-c3ccc(C(C)(C)O)cc3)cc12)c1nccs1` (racemic) [Example 194, 2-(4-(3-chloro-4-((1-(thiazol-2-yl)ethyl)amino)quinolin-6-yl)phenyl)propan-2-ol] it was less than 1000 nM. In the case of `CC(Nc1c(Cl)cnc2cc(F)c(-c3ccc(C(O)C4CC4)cc3)cc12)c1ccccc1F` (centres unmarked) [Example 263, (4-(3-chloro-7-fluoro-4-((1-(2-fluorophenyl)ethyl)amino)quinolin-6-yl)phenyl)(cyclopropyl)methanol] it was 1000 to 10000 nM; in that of `CC(Nc1c(Cl)cnc2cc(F)c(-c3cnc(N4CCN(C(=O)[C@H](N)CC(=O)O)CC4)nc3)cc12)c1ccccc1F` (single isomer, unassigned) [Example 607], less than 1000 nM. For the compound `CC(Nc1c(Cl)cnc2cc(F)c(-c3cnc(N4C[C@H]5CC[C@@H](C4)C5C(=O)O)nc3)cc12)c1ccccc1F` (single isomer, unassigned) [Example 611], the IC50 is less than 1000 nM. In the case of `C[C@@H](Nc1c(Cl)c(C(=O)Nc2cccnc2)nc2ccc(-c3cnc(C(C)(C)O)nc3)cc12)c1cc(C#N)ccc1F` [Example 385, (R)-3-chloro-4-((1-(5-cyano-2-fluorophenyl)ethyl)amino)-6-(2-(2-hydroxypropan-2-yl)pyrimidin-5-yl)-N-(pyridin-3-yl)quinoline-2-carboxamide] it was 1000 to 10000 nM; in that of `C[C@@H](Nc1c(Cl)cnc2ccc(-c3ccc(C4(NCCO)CCC4)cc3)cc12)c1ccccc1F` [Example 568, (R)-2-((1-(4-(3-chloro-4-((1-(2-fluorophenyl)ethyl)amino)quinolin-6-yl)phenyl)cyclobutyl)amino)ethan-1-ol], less than 1000 nM. In the case of `C[C@@H](Nc1c(Cl)cnc2ccc(-c3ccc(N4CCN[C@H](CO)C4)nc3)cc12)c1ccccc1F` [Example 84, ((S)-4-(5-(3-chloro-4-(((R)-1-(2-fluorophenyl)ethyl)amino)quinolin-6-yl)pyridin-2-yl)piperazin-2-yl)methanol] it was less than 1000 nM.

For the compound `Cc1ccc(C)c(Nc2c(Cl)c(C(=O)Nc3cccnc3)nc3ccc(-c4ccc(C(N)=O)nc4)cc23)c1` [Example 37, 6-(6-carbamoylpyridin-3-yl)-3-chloro-4-((2,5-dimethylphenyl)amino)-N-(pyridin-3-yl) quinoline-2-carboxamide], the half-inhibitory concentration (IC50) lay within 10000 to 25000 nM. On to `CC(C)(O)c1ccc(-c2cc3c(NC4(c5ccccc5F)CC4)c(Cl)cnc3cc2F)cc1` [Example 279, 2-(4-(3-chloro-7-fluoro-4-((1-(2-fluorophenyl)cyclopropyl)amino)quinolin-6-yl)phenyl) propan-2-ol], for which the IC50 lay in the range of 1000 to 10000 nM. In the case of `C[C@@H](Nc1c(Cl)cnc2ccccc12)c1cc(-c2cncs2)ccc1F` [Example 542, (R)-3-chloro-N-(1-(2-fluoro-5-(thiazol-5-yl)phenyl)ethyl)quinolin-4-amine] it was less than 1000 nM. With `Cc1nc2ccc(-c3cnc(C(C)(C)O)nc3)cc2c(N[C@H](C)c2cc(C#N)ccc2F)c1Cl` [Example 375, (R)-3-(1-((3-chloro-6-(2-(2-hydroxypropan-2-yl)pyrimidin-5-yl)-2-methylquinolin-4-yl)amino)ethyl)-4-fluorobenzonitrile], the IC50 was less than 1000 nM. In the case of `CNC(=O)c1ccc(F)c([C@@H](C)Nc2c(Cl)cnc3ccc(-c4cnc(C(C)(C)O)nc4)cc23)c1` [Example 416, (R)-3-(1-((3-chloro-6-(2-(2-hydroxypropan-2-yl)pyrimidin-5-yl)quinolin-4-yl)amino)ethyl)-4-fluoro-N-methylbenzamide] it was 1000 to 10000 nM.
